From patent publication EP2759295A1, “Foam cell specific Liver X Receptor (LXR) alpha agonist, SIRT1 inhibitors as well as p300 inhibitors as pharmaceutically active agents” (Max-Planck-Gesellschaft zur Förderung der Wissenschaften …, priority 2013, dated 2014)
Like-named read-outs stand apart in the source and are kept apart here.

Assays:
[1] = test system: HepG2 cells; test: Western-Blot analysis of p53 (Lys382) acetylation in HepG2 cells; assay type: cell-based, human; conditions: 30 µM, 16 hours, 20 µM Etoposide
Method: HepG2 cells were seeded in 6-well plates (2.5 x 10^5 cells/well). 48 h later cells were treated with 20 µM Etoposide to induce p53 acetylation and directly afterwards with NP 1 or DMSO (VC) for 16 h. Cells were harvested and separated into cytosolic and nuclear fractions (NE-PER Nuclear and Cytoplasmic Extraction Reagents). Samples were denatured and SDS-PAGE was performed using NuPAGE Novex 4-12% Bis-Tris Gels. Proteins were blotted on nitrocellulose Hybond ECL membrane. Primary antibodies used were β-actin, p53 and acetyl-p53 (Lys382). Secondary antibodies were HRP-conjugated goat anti-rabbit IgG-HRP and goat anti-mouse IgG-HRP. Detection was performed with Western Lightning Plus-ECL solution. Membranes were stripped with Restore Plus Western Blot Stripping Buffer for 15 min.
Densitometry was performed in GelAnalyzer 2010a, which is a software tool to quantitatively measure the optical density. It provides accurate Western-Blot analysis and helps to detect differences which are not visible by the naked eye. Log(p53-Ac/p53-total) was calculated for every sample and statistical analysis was performed.

[2] = molecular target: T1, SIRT1 (Homo sapiens, UniProt Q96EB6); test: MALDI-TOF MS deacetylation assay; assay type: biochemical
T1 construct: purchased Biomol International, Inc. / Enzo Life Sciences / BlueSky BioTech
T1 sequence (Q96EB6 1-747): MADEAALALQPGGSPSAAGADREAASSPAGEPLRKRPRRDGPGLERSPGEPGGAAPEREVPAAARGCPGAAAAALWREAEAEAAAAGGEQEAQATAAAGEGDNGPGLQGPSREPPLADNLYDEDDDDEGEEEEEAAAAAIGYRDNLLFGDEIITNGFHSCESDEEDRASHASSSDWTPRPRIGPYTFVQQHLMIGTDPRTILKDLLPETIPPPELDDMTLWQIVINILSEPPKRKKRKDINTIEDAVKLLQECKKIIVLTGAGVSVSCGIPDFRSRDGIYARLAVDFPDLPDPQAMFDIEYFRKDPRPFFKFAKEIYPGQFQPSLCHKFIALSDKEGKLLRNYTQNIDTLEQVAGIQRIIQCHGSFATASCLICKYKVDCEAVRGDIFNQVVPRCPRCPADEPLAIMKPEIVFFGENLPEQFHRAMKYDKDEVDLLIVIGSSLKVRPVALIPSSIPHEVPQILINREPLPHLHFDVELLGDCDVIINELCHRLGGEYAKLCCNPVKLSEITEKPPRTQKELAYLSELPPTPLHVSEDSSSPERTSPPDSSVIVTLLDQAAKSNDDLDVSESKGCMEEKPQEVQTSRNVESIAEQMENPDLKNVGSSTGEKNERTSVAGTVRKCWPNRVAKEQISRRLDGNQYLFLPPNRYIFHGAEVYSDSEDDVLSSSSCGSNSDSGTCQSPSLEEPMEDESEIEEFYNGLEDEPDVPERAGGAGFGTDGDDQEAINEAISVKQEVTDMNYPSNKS
Method: The assay was performed in a 20 µL reaction. 0.5 µM acetylated peptide and 120 µM NAD^+ in reaction buffer (50 mM Tris-acetate (pH 8), 137 mM NaCl, 2.7 mM KCI, 1 mM MgCl2, 5 mM DTT, 0.05 % BSA) were mixed with compound or DMSO (VC). Reactions were initiated by adding 10 nM of SIRT1. After incubation for 30 min at 37°C, reactions were stopped by formic acid and nicotinamide (f.c. 1% and 5 mM, respectively). Reactions were performed with histone H4 peptide and 1% DMSO unless stated otherwise. […]
Acetylated and deacetylated peptides were mixed at different ratios in the respective buffer including stop solution and reaction components except the enzyme. Purification, preparation and MS detection were conducted in parallel to reaction samples. CCs were generated for IC50 value determination but not for the screening.
Peptides were purified by Oasis HLB µElution Plates using a vacuum manifold [S. Sauer et al. J Chromatogr A (2004), 1049, 9-16]. Plate columns were conditioned by 70% ACN and equilibrated with 0.1% TFA. Samples were loaded, desalted by 0.1 % TFA and H2O and eluted in 70% ACN.
For ultra thin layer (UTL), supernatant of saturated CHCA in ACN / H2O (2:1) and 0.1% TFA. was mixed with isopropanol (1:3) and was spread on a ground steel target. After solvent evaporated excess of CHCA was removed from target surface with a tissue [D. Fenyo et al. J Vis Exp (2007), 192]. The matrix used for sample preparation contained saturated CHCA in ACN / 0.1% TFA (1:2) or ACN / H2O (1:2) depending on peptide size [S. L. Cohen et al. Anal Chem (1996), 68, 31-37]. HLB eluted samples and matrix were mixed (1:4) and spotted on the UTL.
Samples were measured automatically (AutoXecute software, Bruker Daltonik GmbH) using an ultraflex II MALDI-TOF mass spectrometer (Bruker Daltonik GmbH) in positive ion reflector mode. Laser power and detector gain were adjusted prior to every automatic run, which were performed in random walk movement.
For assay optimization and IC50 determination, 1000 shots were accumulated in 100 satisfactory shot steps (fuzzy control). At least one peak within a defined mass range had to fulfill the following criteria for the spectra to be accumulated: Absolute (min.) intensity: 800; S/N: 15; peak width: 0.2.
A script (Bruker Daltonik GmbH) was employed to analyze peptide peaks in a batch process (flexAnalysis software, Version 3.0, Bruker Daltonik GmbH). Percentage of de-/acetylation were calculated using the sum of the first four monoisotopic peak intensities. CC was generated by plotting experimental vs. calculated peptide acetylation. Measured sample values were interpolated with CC to determine de-/acetylation values (GraphPad Prism). When no CC was created, peak intensity ratios were generated. Verified single NP screening hits had to pass a peak ratio of ≤ 0.1 (deac/ac).
As IC50 values were not gained at initial velocity conditions, values were corrected by a conversion factor according to Wu et al. (Table 5) [G. Wu et al. J Biomol Screen (2003), 8, 694-700].

[3] = test system: foam cells; test: cholesterol content in foam cells (Amplex Red Cholesterol Assay); assay type: cell-based, human; conditions: 10 µM, 48 h
Method: (§1) THP-1 monocytes were plated out into 24-well plates (Nunc) at a density of 2 x 10^5 cells/well. After differentiation and treatment cells were lysed with 100 µL lysis buffer (PBS, 0.25 M NaCl, 1% Triton X-100). Total and free cholesterol were determined using the colorimetric enzymatic Amplex Red Cholesterol Assay Kit (Invitrogen). Triglycerides were quantified by Triglyceride Assay Kit (BioVision). For normalisation protein content was determined with Pierce 660 nm Protein Assay Reagent (Thermo Scientific).

[4] = test system: foam cells; test: microarray genome-wide gene expression and GSEA in foam cells; assay type: cell-based, human; conditions: 10 µM
Method: Microarray analyses were performed according to instructions of Illumina's TotalPrep RNA Amplification Kit followed by hybridisation on HumanHT-12 v3 or HumanHT-12 v4 Expression BeadChips (illumina). Data analysis was performed with GenomeStudio […].1 (illumina). Differential expression analysis was performed on background-subtracted data with cubic spline normalization and Benjamini-Hochberg FDR correction. […] Gene expression data were submitted in MIAME-compliant form to the NCBI Gene Expression Omnibus database (GSE39079). Bead array data were validated by quantitative real-time PCR. The Gene Distance Matrix was conducted in Euclidean space using the MeV 4.3 software tool [[…]. et al. Biotechniques (2003), 34, 374-378]. Gene Set Enrichment Analysis (GSEA) was performed as described elsewhere [Subramanian A. et al. Proc. Natl. Acad. Sci. […] Enrichment of pathways was tested using the Reactome (v3.0) and the KEGG (v3.0) database from the Molecular Signature Database (MSigDB). Heatmaps were carried out with […]. et al. BMC Bioinformatics (2012), 11, 121]. For presentation of treatment effects in the heatmap, the pathway normalized enrichment score (NES) was adjusted with the appropriate FDR as follows: adjustedNES = (1-FDR) x NES.

[5] = test system: macrophages; test: microarray genome-wide gene expression and GSEA in macrophages; assay type: cell-based, human; conditions: 10 µM
Method: Microarray analyses were performed according to instructions of Illumina's TotalPrep RNA Amplification Kit followed by hybridisation on HumanHT-12 v3 or HumanHT-12 v4 Expression BeadChips (illumina). Data analysis was performed with GenomeStudio V2011.1 (illumina). Differential expression analysis was performed on background-subtracted data with cubic spline normalization and Benjamini-Hochberg FDR correction. Significant data was considered to have a detection p-value of ≤ 0.01 and differential expression p-value of ≤ 0.05 according to Illumina's t-test error model. […] Bead array data were validated by quantitative real-time PCR. The Gene Distance Matrix was conducted in Euclidean space using the MeV 4.3 software tool [Saeed A.I. et al. Biotechniques (2003), 34, 374-378]. Gene Set Enrichment Analysis (GSEA) was performed as described elsewhere [Subramanian A. et al. Proc. Natl. Acad. Sci. (2005) 102, 15545-15550] with the following parameters: 1000 gene set permutations, weighted enrichment statistics, minimal gene set size of 5, and signal-to-noise metric. Enrichment of pathways was tested using the Reactome (v3.0) and the KEGG (v3.0) database from the Molecular Signature Database (MSigDB). Heatmaps were carried out with Mayday 2.8 [Battke F. et al. BMC Bioinformatics (2012), 11, 121]. […]

[6] = test system: THP-1 macrophages; test: CellTiter-Glo viability assay in THP-1 macrophages; assay type: cell-based, human
Method: (§2) For generating macrophages differentiation was induced by 10^-8 M Phorbol 12-myristate 13-acetate (PMA) (Sigma-Aldrich) for 48 h. Ligand treatment of macrophages was performed for further 24 h. To induce foam cell formation macrophages were treated for additional 48 h with 100 µg/mL modified human oxidized low density lipoprotein (oxLDL) obtained from Source BioScience (RP-048). Ligand treatment was performed simultaneously with foam cell formation. Cholesterol loading and treatment was controlled with Oil Red O staining (Alfa Aeser). To investigate ligand induced effects on cell proliferation of THP-1 macrophages CellTiter-Glo Luminescent Cell Viability Assay (Promega) was utilized.

[7] = test system: foam cells; test: siRNA-mediated LXRα/β knockdown in foam cells with qPCR; assay type: cell-based, human; conditions: 10 µM ligand for 24 h
Method: Target specificity of ligand-dependent gene expression effects was investigated in siRNA-mediated LXRα and β-knockdown foam cells with subsequent qPCR or microarray analysis. Therefore, 2 x 10^5 THP-1 cells/well were differentiated in 24-well plate and induced to foam cells prior to knockdown as described above. Foam cells were transfected using TransIT-TKO transfection reagent (Mirus Bio), for combined knockdown with 15 nM LXRα Silencer Validated siRNA (Ambion, ID 5458) and 15 nM LXRβ Silencer Select Validated siRNA (Ambion, ID s14684) and with 30 nM LXRα or LXRβ for individual knockdowns, respectively. As control we used 30 nM Silencer Select Negative Control #1 (Ambion). Transfection was carried out for 48 h and followed by treatment with 10 µM ligand or vehicle control for 24 h.
(§3) Total RNA isolation and purification was performed by using the RNeasy Mini Kit (QIAGEN) and RNase-Free DNase Set (QIAGEN). cDNA was generated by reverse transcription using the High Capacity cDNA Reverse Transcription Kit (Applied Biosystems). Gene expression was quantified using the SYBR Green PCR Master Mix (Applied Biosystems) and ABI 7900HT Fast Real Time PCR System (Applied Biosystems). In each reaction 0.8 ng/µL cDNA and 0.2 µM primers were used. Gene expression was calculated with the ΔΔCt-method. β-Actin was used for normalisation.

[8] = test system: foam cells; test: triglyceride content in foam cells (Triglyceride Assay Kit); assay type: cell-based, human; conditions: 10 µM, 48 h
Method: as §1

[9] = test system: THP-1 macrophages; test: qPCR gene expression of LXRα target genes in THP-1 macrophages; assay type: cell-based, human; conditions: 10 µM
Method: as §2, §3

[10] = molecular target: T2, LXRα ligand binding domain (LBD) (Homo sapiens, UniProt Q13133); test: dual luciferase reporter gene assay with LXRα ligand binding domain in HEK-293 cells; assay type: cell-based
T2 construct: expressed in transfected cells; host or cells: HEK-293
T2 sequence (Q13133 164-447): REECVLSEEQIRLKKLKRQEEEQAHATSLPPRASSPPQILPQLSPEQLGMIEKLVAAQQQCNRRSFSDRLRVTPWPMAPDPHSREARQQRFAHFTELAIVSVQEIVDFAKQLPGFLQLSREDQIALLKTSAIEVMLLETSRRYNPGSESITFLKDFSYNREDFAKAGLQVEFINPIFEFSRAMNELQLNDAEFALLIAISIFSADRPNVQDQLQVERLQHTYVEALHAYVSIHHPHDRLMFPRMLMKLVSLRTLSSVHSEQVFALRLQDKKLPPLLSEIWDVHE
Method: The ligand binding domain (LBD) of LXRα (amino acids 164 to 447) or LXRβ (amino acids 154 to 461) was cloned into pBIND [Renilla/Amp] vector (Promega). Selection and amplification were performed in E-coli cells. Purification of the plasmids was performed with a plasmid purification kit (Qiagen). For transfection HEK-293 cells were plated in 96-well plates (TPP) at a density of 3.5 x 10^4 cells/well for 24 h. To investigate the ligand binding on LXRα ligand binding domain, 0.04 ng of renilla luciferase coding plasmide pGL4.75 (Promega), 0.04 ng of LXRα-LBD/GAL4-DBD plasmide and 80 ng of firefly luciferase coding plasmide pGL4.31 (Promega) were used in a total volume of 200 µL for each well. In LXRβ binding assay 40 ng of LXRβ-LBD/GAL4-DBD plasmide were applied in each transfection mix. Transfection was carried out for 4 h with Lipofectamine 2000 Transfection Reagent (Invitrogen) in Opti-MEM medium (Invitrogen). Ligand treatment was performed at different concentrations for 24 h. For lysis and detection dual-luciferase reporter gene assay system (Promega) and POLARstar Omega (BMG LABTECH) were used.

[11] = test system: macrophages; test: triglyceride content in macrophages (Triglyceride Assay Kit); assay type: cell-based, human; conditions: 10 µM, 48 h
Method: as §1

Compound | p53 acetylation in the nuclear fraction [1] | IC50 ([2]; Table 3, corrected values (see Table 5), read-out: IC50 values) [µM] | IC50 ([2]; corrected by conversion factor according to Wu et al., read-out: Corrected IC50) [µM] | IC50 ([2]; uncorrected, not at initial velocity conditions, read-out: Obtained IC50') [µM] | total and esterified cholesterol content [3] | Lipid metabolism processes (gene set enrichment) [4] | triacylglyceride biosynthesis (transcriptional regulation) [4] | expression of genes involved in lipid metabolism processes [5] | no cytotoxic effects / no reduction of cellular viability up to [6] | gene expression of LXRα and ABCA1 after LXRα/β knockdown [7] | triglyceride levels [8] | expression of LXRα target genes (LXRα, SREBF1, ABCA1, APOE) [9] | Efficacy ([10]; +DMSO, reporter gene transcription vs. T09) [%] | specificity LXRα vs. LXRβ ([10]; reporter-gene assays with LXRα and LXRβ LBD) | triglyceride level [11]
COc1cc(-c2ccc(O)cc2)c(OC)c(O)c1C1=CC(=O)OC1CC(=O)O (stereo not drawn) [NP 1, 2-(3-(3,4'-dihydroxy-2,5-dimethoxybiphenyl-4-yl)-5-oxo-2,5-dihydrofuran-2-yl)acetic acid] | significant increase of p53 acetylation | 9.7 ± 0.7 | 9.7 ± 0.7 | 13 ± 1 | – | – | – | – | – | – | – | – | – | – | –
O=S(=O)(c1ccccc1)N(CC(F)(F)F)c1ccc(C(O)(C(F)(F)F)C(F)(F)F)cc1 [T09, reference compound] | – | – | – | – | significant reduction of total and esterified cholesterol content | comparably up-regulated | transcriptionally induced | activated | no cytotoxic effects | significant reduction of LXRα and ABCA1 expression | increased triglyceride levels | increased expression of LXRα target genes | 100 | bound to LXRα and LXRβ with similar affinity | stayed unchanged
